Measurements from PubChem BioAssay AID1963972 (Molecular Pharmacology Branch, DTP, NCI, 2024).

Tested on: 945468-187-T-J2-PDC spheroids viability
Assay: Anticancer human tumor 945468-187-T-J2-PDC patient-derived rectal carcinoma cell line growth inhibition [PI3K]
Settings: spheroids with HUVEC and MSC; for IC50: curve of first compound; for viability, T/C: stronger effect = lower value; active = viability on the fitted dose curve at most 10% of control; inactive = the rest
Text: Combinatorial screen of targeted agents with the PI3K inhibitors inavolisib, alpelisib, duvelisib, and copanlisib in multi-cell type tumor spheroids
A high-throughput screen of multi-cell type tumor spheroids was designed to identify active combinations of targeted small molecules and PI3K pathway inhibitors. Complex spheroids include a stromal component modeled by human endothelial cells (HUVEC) and fibroblasts modeled by human mesenchymal stem cells (MSCs). The concentration ranges selected for each drug and investigational agent were based upon clinically achievable concentrations if the clinical Cmax of the agent was known.
Compounds. The drugs and investigational agents: inavolisib (NSC800729), alpelisib (NSC765974), duvelisib (NSC772469), copanlisib (NSC816437), ipatasertib (NSC767898), afuresertib (NSC778305), talazoparib (NSC767125), sapanisertib (NSC764658), selumetinib (NSC741078), tovorafenib (DAY101, NSC766906), vemurafenib (NSC761431), ravoxertinib (NSC781343), sotorasib (NSC818433), MRTX1133 (NSC 836407), abemaciclib (NSC 768073), palbociclib (NSC758247), venetoclax (NSC 766270), SY5609 (NSC837396), enzalutamide (NSC755605), and darolutamide (NSC825331), were obtained from the National Cancer Institute (NCI) Developmental Therapeutics Program Chemical Repository. The FDA-approved anticancer drug set is available from the NCI Developmental Therapeutics Program. […] The stock solutions were prepared in dimethyl sulfoxide (DMSO, Sigma-Aldrich, St. Louis, MO, cat. D2650) at 800-fold the tested concentration and stored at -70 degrees C prior to their use. All drugs and investigational agents were tested over a range starting from a high concentration at or near the clinical Cmax and decreasing in half-log increments. If the clinical Cmax for an agent had not been determined, the highest concentration tested was 10 microM.
Cell Culture. All cells were maintained in an incubator at 37 degrees C and 5% CO2 with 95% humidity. The PDC lines were cultured according to standard operating procedures established by the NCI PDMR (https://pdmr.cancer.gov/sops/default.htm). All PDCs were thawed and cultured in Matrigel-coated flasks prepared with a working solution of 1X Ham's F-12 nutrient mix, without supplementation (Invitrogen, Waltham, MA, cat. 11765054), 100 U/mL penicillin-streptomycin (Invitrogen, cat. 15140122), and 2.5% Matrigel (Corning Inc., Corning, NY, cat. 354248) for the first three passages. The 354836-022-R-J1-PDC, 475296-252-R-J1-PDC, and 997726-040-R-J2-PDC lines were cultured in 6A media, which includes advanced DMEM/F-12 (Thermo Fisher Scientific, cat. 12634028), 10 mM HEPES (Thermo Fisher Scientific, cat. 15630080), 1X GlutaMAX supplement (Thermo Fisher Scientific, cat. 35050061), 0.1 mg/mL primocin (InvivoGen, San Diego, CA, cat. ant-pm-2), 10% defined fetal bovine serum, heat inactivated (HyClone Laboratories Inc., Logan, UT, cat. SH30070.03HI), 50% L-WRN conditioned media (ATCC, cat. CRL-3276), 1.25 mM N-Acetyl-L-cysteine (Sigma-Aldrich, cat. A9165), 10 mM nicotinamide (Sigma-Aldrich, cat. N0636), 1X B-27 supplement (Thermo Fisher Scientific, cat. 17504044), 1X N-2 supplement (Thermo Fisher Scientific, cat. 17502048), and 10 microM Y-27632 dihydrochloride (Tocris Bioscience, Bristol, United Kingdom, cat. 1254). The 624824-186-R-J2-PDC line was cultured in 6C/Colon 1B media, which includes all 6A media components plus 50 ng/mL human EGF recombinant protein (Thermo Fisher Scientific, cat. PHG0311). […]

[1] = second compound 0.0316 µM, first compound 0.0316 µM
[2] = second compound 0.0316 µM, first compound 0.1 µM
[3] = second compound 0.0316 µM, first compound 0.316 µM
[4] = second compound 0.0316 µM, first compound 1 µM
[5] = second compound 0.0316 µM, first compound 3.16 µM
[6] = second compound 0.0316 µM, first compound 10 µM
[7] = second compound 0.1 µM, first compound 0.0316 µM
[8] = second compound 0.1 µM, first compound 0.1 µM
[9] = second compound 0.1 µM, first compound 0.316 µM
[10] = second compound 0.1 µM, first compound 1 µM
[11] = second compound 0.1 µM, first compound 3.16 µM
[12] = second compound 0.1 µM, first compound 10 µM
[13] = second compound 0.316 µM, first compound 0.0316 µM
[14] = second compound 0.316 µM, first compound 0.1 µM
[15] = second compound 0.316 µM, first compound 0.316 µM
[16] = second compound 0.316 µM, first compound 1 µM
[17] = second compound 0.316 µM, first compound 3.16 µM
[18] = second compound 0.316 µM, first compound 10 µM
[19] = second compound 1 µM, first compound 0.0316 µM
[20] = second compound 1 µM, first compound 0.1 µM
[21] = second compound 1 µM, first compound 0.316 µM
[22] = second compound 1 µM, first compound 1 µM
[23] = second compound 1 µM, first compound 3.16 µM
[24] = second compound 1 µM, first compound 10 µM
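Note: spheroids exposed to compounds for seven days before reading.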

C=CC(=O)N1CCN(c2nc(=O)n(-c3c(C)ccnc3C(C)C)c3nc(-c4c(O)cccc4F)c(F)cc23)C(C)C1 (centres undefined) + Cc1nc(NC(=O)N2CCCC2C(N)=O)sc1-c1ccnc(C(C)(C)C(F)(F)F)c1
> 10 µM: IC50 (second compound 0.0316 µM) | IC50 (second compound 0.1 µM) | IC50 (second compound 0.316 µM) | IC50 (second compound 1 µM) | IC50 (second compound 3.16 µM) | IC50 (second compound 10 µM)
inactive: viability, T/C [1] 102% | viability, T/C [2] 79.7% | viability, T/C [3] 96.2% | viability, T/C [4] 90.1% | viability, T/C [5] 128% | viability, T/C [6] 113% | viability, T/C [7] 117% | viability, T/C [8] 121% | viability, T/C [9] 97.9% | viability, T/C [10] 97.5% | viability, T/C [11] 95% | viability, T/C [12] 106% | viability, T/C [13] 117% | viability, T/C [14] 156% | viability, T/C [15] 102% | viability, T/C [16] 106% | viability, T/C [17] 101% | viability, T/C [18] 96% | viability, T/C [19] 102% | viability, T/C [20] 111% | viability, T/C [21] 100% | viability, T/C [22] 91.6% | viability, T/C [23] 95% | viability, T/C [24] 104% | viability, T/C (second compound 3.16 µM, first compound 0.0316 µM) 91.2% | viability, T/C (second compound 3.16 µM, first compound 0.1 µM) 107% | viability, T/C (second compound 3.16 µM, first compound 0.316 µM) 83.8% | viability, T/C (second compound 3.16 µM, first compound 1 µM) 81.9% | viability, T/C (second compound 3.16 µM, first compound 3.16 µM) 82.8% | viability, T/C (second compound 3.16 µM, first compound 10 µM) 96.2% | viability, T/C (second compound 10 µM, first compound 0.0316 µM) 70.4% | viability, T/C (second compound 10 µM, first compound 0.1 µM) 87.8% | viability, T/C (second compound 10 µM, first compound 0.316 µM) 81.7% | viability, T/C (second compound 10 µM, first compound 1 µM) 73.7% | viability, T/C (second compound 10 µM, first compound 3.16 µM) 87.3% | viability, T/C (second compound 10 µM, first compound 10 µM) 92.9%

Cn1nccc1Nc1nccc(-c2ccn(C(CO)c3ccc(Cl)c(F)c3)c(=O)c2)n1 (centres undefined) + CC(Nc1ccc2c(c1)OCCn1cc(N3C(=O)OCC3C(F)F)nc1-2)C(N)=O
inactive: viability, T/C (second compound 0.00316 µM, first compound 0.0316 µM) 92.2% | viability, T/C (second compound 0.00316 µM, first compound 0.1 µM) 114% | viability, T/C (second compound 0.00316 µM, first compound 0.316 µM) 88.5% | viability, T/C (second compound 0.00316 µM, first compound 1 µM) 102% | viability, T/C (second compound 0.00316 µM, first compound 3.16 µM) 90.7% | viability, T/C (second compound 0.00316 µM, first compound 10 µM) 79.9% | viability, T/C (second compound 0.01 µM, first compound 0.0316 µM) 124% | viability, T/C (second compound 0.01 µM, first compound 0.1 µM) 109% | viability, T/C (second compound 0.01 µM, first compound 0.316 µM) 101% | viability, T/C (second compound 0.01 µM, first compound 1 µM) 89.1% | viability, T/C (second compound 0.01 µM, first compound 3.16 µM) 91.9% | viability, T/C (second compound 0.01 µM, first compound 10 µM) 74.8% | viability, T/C [1] 118% | viability, T/C [2] 102% | viability, T/C [3] 92.6% | viability, T/C [4] 80% | viability, T/C [5] 83.6% | viability, T/C [6] 77.6% | viability, T/C [7] 113% | viability, T/C [8] 90.6% | viability, T/C [9] 124% | viability, T/C [10] 111% | viability, T/C [11] 101% | viability, T/C [12] 73.9% | viability, T/C [13] 74.3% | viability, T/C [14] 105% | viability, T/C [15] 86.5% | viability, T/C [16] 83% | viability, T/C [17] 85% | viability, T/C [18] 81.7% | viability, T/C [19] 79.2% | viability, T/C [20] 72.4% | viability, T/C [21] 84.3% | viability, T/C [22] 89.1% | viability, T/C [23] 75.5% | viability, T/C [24] 83.5%
> 10 µM: IC50 (second compound 0.00316 µM) | IC50 (second compound 0.01 µM) | IC50 (second compound 0.0316 µM) | IC50 (second compound 0.1 µM) | IC50 (second compound 0.316 µM) | IC50 (second compound 1 µM)
